Test results from patent US20190174760A1, “N-ALKYLSULFONYL CONDENSED HETEROCYCLIC COMPOUND OR SALT THEREOF, INSECTICIDE COMPRISING THE COMPOUND, AND METHOD FOR USING THE INSECTICIDE” (Nihon Nohyaku Co., Ltd., priority 2016, published 2019).

Key:
[1] = tested on: Laodelphax striatellus; experiment: Insecticidal test on Laodelphax striatellus (rice seedling dip); assay type: in vivo; conditions: 192 h, rice seedlings dipped 30 seconds, 3rd-instar larvae, 8 days after inoculation, read-out: insecticidal efficacy (corrected mortality rate) on Laodelphax striatellus
Excerpt: Insecticidal Test on Laodelphax striatellus
The compounds represented by the general formula (1) of the present invention or salts thereof were separately dispersed in water and diluted to 500 ppm. Rice plant seedlings (variety: Nihonbare) were dipped in the agrochemical dispersions for 30 seconds. After air-dried, each seedling was put into a separate glass test tube and inoculated with ten 3rd-instar larvae of Laodelphax striatellus, and then the glass test tubes were capped with cotton plugs. At 8 days after the inoculation, the numbers of surviving larvae and dead larvae were counted, the corrected mortality rate was calculated according to the formula shown below, and the insecticidal efficacy was evaluated according to the criteria shown below.
Corrected mortality rate (%)=100×(Survival rate in a non-treatment plot−Survival rate in a treatment plot)/Survival rate in a non-treatment plot [Math. 2]
A: the corrected mortality rate is 100%. B: the corrected mortality rate is 90 to 99%. C: the corrected mortality rate is 80 to 89%. D: the corrected mortality rate is 50 to 79%.

[2] = tested on: Plutella xylostella; experiment: Insecticidal test on Plutella xylostella (dip of Chinese cabbage seedlings with laid eggs); assay type: in vivo; conditions: 144 h, seedlings with laid eggs dipped about 30 seconds, 25° C., 6 days after dip treatment, read-out: insecticidal efficacy (corrected mortality rate) on Plutella xylostella
Excerpt: Insecticidal Test on Plutella xylostella
Adults of Plutella xylostella were released onto Chinese cabbage seedlings and allowed to lay eggs thereon. At 2 days after the release of the adults, the Chinese cabbage seedlings with laid eggs were dipped for about 30 seconds in agrochemical formulations diluted to 500 ppm, each of which contained a different compound represented by the general formula (1) of the present invention as an active ingredient. After air-dried, the seedlings were kept in a thermostatic chamber at 25° C. At 6 days after the dip treatment, the number of hatched larvae per plot was counted, the mortality rate was calculated according to the formula shown below, and the insecticidal efficacy was evaluated according to the criteria of Test Example 2. This test was conducted in triplicate using 10 adults of Plutella xylostella per plot.
Corrected mortality rate (%)=100×(Number of hatched larvae in a non-treatment plot−Number of hatched larvae in a treatment plot)/Number of hatched larvae in a non-treatment plot [Math. 3]

SMILES	mortality at 500 ppm [1] [%]	mortality at 500 ppm [2] [%]
CCS(=O)(=O)n1c(-c2nc3cc(C(F)(F)C(F)(F)F)nnc3n2C)cc2ccccc21 [Compound 1-33, 2-(1-ethylsulfonylindol-2-yl)-3-methyl-6-pentafluoroethyl-3H-imidazo[4,5-c]pyridazine]	100	100
CCS(=O)(=O)n1c(-c2nc3cc(C(F)(F)C(F)(F)F)nnc3n2C)cc2ccc(F)cc21 [Compound 1-65, 2-(1-ethylsulfonyl-6-fluoroindol-2-yl)-3-methyl-6-pentafluoroethyl-3H-imidazo[4,5-c]pyridazine]	100	100
CCS(=O)(=O)n1c(-c2nc3cc(C(F)(F)F)cnc3n2C)cc2cc(C(F)(F)F)ccc21 [Compound 2-11, 2-(1-ethylsulfonyl-5-trifluoromethylindol-2-yl)-3-methyl-6-trifluoromethyl-3H-imidazo[4,5-b]pyridine]	100	100
CCS(=O)(=O)n1c(-c2nc3cc(SC(F)(F)F)ccc3o2)cc2ccccc21 [Compound 3-1, 2-(1-ethylsulfonylindol-2-yl)-5-trifluoromethylthiobenzo[d]oxazole]		100
